What is called Ki is a dissociation constant, usually derived from enzyme kinetics or from competition with a known ligand. High values mean a looser hold on the target, low ones a stronger hold on the target.

We go through 27 molecules from PMC6767204, “Synthesis and Biological Evaluation of Disubstituted Pyrimidines as Selective 5-HT2C Agonists” (Molecules, 2019).

Structures can show the parent of a compound that is named as a salt.

For the first experiment, the target named is T1, 5-HT2C receptor (Homo sapiens, UniProt P28335).
T1 sequence (P28335 33-458): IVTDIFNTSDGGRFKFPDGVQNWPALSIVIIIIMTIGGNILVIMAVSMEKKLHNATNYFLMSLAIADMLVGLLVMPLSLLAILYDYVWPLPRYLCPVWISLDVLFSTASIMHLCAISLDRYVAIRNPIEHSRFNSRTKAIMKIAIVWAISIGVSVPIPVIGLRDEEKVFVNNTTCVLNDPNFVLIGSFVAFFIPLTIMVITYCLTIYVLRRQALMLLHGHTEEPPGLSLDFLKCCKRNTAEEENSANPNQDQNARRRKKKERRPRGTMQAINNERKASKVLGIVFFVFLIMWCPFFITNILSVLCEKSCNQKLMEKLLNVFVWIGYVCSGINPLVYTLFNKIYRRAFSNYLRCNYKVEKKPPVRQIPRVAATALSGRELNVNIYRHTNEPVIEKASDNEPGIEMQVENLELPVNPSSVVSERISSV
In words: 5-HT receptor radioligand binding affinity assay, 2C. Set-up: expressed in transfected cells. Conditions: Table 2. How it is done: Eleven dilutions (5 x assay concentration) of the test and reference compounds (Table S1) were prepared in standard binding buffer (50 mM tris(hydroxymethyl)-aminomethane–HCl (Tris-HCl), 10 mM MgCl2, 1 mM ethylenediaminetetraacetate (EDTA), pH 7.4) by serial dilution: 0.05 nM, 0.5 nM, 1.5 nM, 5 nM, 15 nM, 50 nM, 150 nM, 500 nM, 1.5 μM, 5 μM, and 50 μM. The radioligand (Table S1) was diluted to five times the assay concentration in standard binding buffer. Aliquots (50 μL) of the radioligand were dispensed into the wells of a 96-well plate containing 100 μL of standard binding buffer. Triplicate aliquots (50 μL) of the test and reference compound dilutions were then added. Finally, crude membrane fractions (50 μL) of cells (HEK293 or CHO) expressing human recombinant receptors were dispensed into each well. A total 250 μL of the reaction mixtures was incubated at room temperature and shielded from light for 1.5 h, then harvested by rapid filtration onto Whatman GF/B glass fiber filters presoaked with 0.3% polyethyleneimine, by using a 96-well Brandel harvester.
Four rapid washes were performed with chilled standard binding buffer (500 μL) to decrease nonspecific binding. Filters were placed in 6 mL scintillation tubes and allowed to dry overnight. The next day, 4 ml of EcoScint scintillation cocktail (National Diagnostics) was added to each tube. The tubes were capped, labeled, and counted by liquid scintillation counting. The filter mats were dried, and the scintillant was melted onto the filters, then the radioactivity retained on the filters was counted in a Microbeta scintillation counter. The IC50 values were obtained by using the Prism 4.0 program (GraphPad Software, San Diego, CA) and converted into Ki values. Each compound was tested in triplicate at least.
3. Radioligands and reference compounds for binding assay
Table S1. A list of 5-HT receptor radioligands and reference compounds for binding assay.
Receptor subtype Radioligand Reference compound
1A [3H]8-OH-DPAT Methysergide
2A [3H]Ketanserin Chlorpromazine
2C [3H]Mesulergine Chlorpromazine
As for `C[C@@H](Oc1nc(N2C[C@H]3CNC[C@H]3C2)ncc1F)c1cccc(F)c1` [10c, (3aR,6aS)-2-(5-fluoro-4-((R)-1-(3-fluorophenyl)ethoxy)pyrimidin-2-yl)octahydropyrrolo[3,4-c]pyrrole], the Ki was 295 nM.
Consider `C[C@@H](Oc1nc(N[C@@H]2CCNC2)ncc1F)c1cccc(F)c1` [10d, 5-fluoro-4-((R)-1-(3-fluorophenyl)ethoxy)-N-((R)-pyrrolidin-3-yl)pyrimidin-2-amine], for which the inhibition constant Ki was found to be 119 nM.
On the same count and under the same terms, the value for `C[C@@H](Oc1nc(N[C@H]2CCNC2)ncc1F)c1cccc(F)c1` [10e, 5-fluoro-4-((R)-1-(3-fluorophenyl)ethoxy)-N-((S)-pyrrolidin-3-yl)pyrimidin-2-amine] was 1260 nM; that for `C[C@@H](Oc1nc(N2CCC3(CCNC3)C2)ncc1F)c1ccc(F)cc1` (stereo partly drawn) [10g, 2-(5-fluoro-4-((R)-1-(4-fluorophenyl)ethoxy)pyrimidin-2-yl)-2,7-diazaspiro[4.4]nonane] was 232 nM.
`C[C@@H](Oc1nc(N2C[C@H]3CNC[C@H]3C2)ncc1F)c1ccc(F)cc1` [10h, (3aR,6aS)-2-(5-fluoro-4-((R)-1-(4-fluorophenyl)ethoxy)pyrimidin-2-yl)octahydropyrrolo[3,4-c]pyrrole] gave an inhibition constant Ki of 466 nM.
Still for that read-out and setting: the value for `C[C@@H](Oc1nc(N[C@@H]2CCNC2)ncc1F)c1ccc(F)cc1` [10i, 5-fluoro-4-((R)-1-(4-fluorophenyl)ethoxy)-N-((R)-pyrrolidin-3-yl)pyrimidin-2-amine] was 120 nM.

The target of the next experiment is T1, 5-HT2C receptor. The experiment in a line: 5-HT2C receptor cell-based functional assay (agonist mode, fluorescence-based). Conditions: 1 μM; Table 1 footnote a.
Experimental: The synthesized compounds were tested in agonist mode with the 5-HT2C receptor assay using recombinant human HEK-293 cells serviced by either Eurofins Cerep or DGMIF (Daegu-Gyeongbuk Medical Innovation Foundation). All the experiments were duplicated.
In the case of `C[C@H]1CNCCc2ccc(Cl)cc21` [Lorcaserin (1), Lorcaserin, reference compound], the “%activation value at 1 μM” value is 94^a %.

The same experiment, now with this note: HEK293, read-out: %activation (10 μM).
For the molecule `C[C@@H]1CNCCN1c1ncc(Oc2cccc(F)c2)cn1` [9g], the activation at 10 µM stood at 35%.
With `C[C@@H]1CNCCN1c1ncc(OCc2cccc(F)c2)cn1` [9h, (R)-4-(5-((3-fluorobenzyl)oxy)pyrimidin-2-yl)-3-methylpiperazine-1-ium∙hydrochloride], the activation at 10 µM was 48%.
As to `C[C@@H]1CNCCN1c1ncc(OCCc2cccc(F)c2)cn1` [9i], the activation at 10 µM was 40%.
For the molecule `C[C@@H]1CNCCN1c1ncc(Oc2ccc(F)cc2)cn1` [9j], the activation at 10 µM came to 26%.
The same measure, in the same setting: the value for `C[C@@H]1CNCCN1c1ncc(OCc2ccc(F)cc2)cn1` [9k, (R)-4-(5-((4-fluorobenzyl)oxy)pyrimidin-2-yl)-3-methylpiperazin-1-ium∙hydrochloride] was 48%; that for `C[C@@H]1CNCCN1c1ncc(OCCc2ccc(F)cc2)cn1` [9l] was 32%.
On to `Fc1cccc(Oc2cnc(N3CCCNCC3)nc2)c1` [9m], for which the activation at 10 µM was 16%.
For `Fc1cccc(COc2cnc(N3CCCNCC3)nc2)c1` [9n, 4-(5-((3-fluorobenzyl)oxy)pyrimidin-2-yl)-1,4-diazepan-1-ium∙hydrochloride], the activation at 10 µM is -1%.
Consider `Fc1cccc(CCOc2cnc(N3CCCNCC3)nc2)c1` [9o], for which the activation at 10 µM amounted to 3%.
Turning to `Fc1ccc(Oc2cnc(N3CCCNCC3)nc2)cc1` [9p], the activation at 10 µM was 14%.
Take `Fc1ccc(COc2cnc(N3CCCNCC3)nc2)cc1` [9q, 4-(5-((4-fluorobenzyl)oxy)pyrimidin-2-yl)-1,4-diazepan-1-ium∙hydrochloride]: the activation at 10 µM worked out at 16%.
Still for that read-out and setting: the value for `Fc1ccc(CCOc2cnc(N3CCCNCC3)nc2)cc1` [9r] was -1%.

Still in this experiment, the particulars now being: HEK293, read-out: %activation (10 μM), 10 μM; recombinant human HEK-293 cells; Table 1.
As to `Fc1cccc(Oc2cnc(N3CCNCC3)nc2)c1` [9a], the activation at 10 µM stood at 7%.
Regarding `Fc1cccc(COc2cnc(N3CCNCC3)nc2)c1` [9b, 4-(5-((3-fluorobenzyl)oxy)pyrimidin-2-yl)piperazin-1-ium∙hydrochloride], the activation at 10 µM was above 50%.
For `Fc1cccc(CCOc2cnc(N3CCNCC3)nc2)c1` [9c], the activation at 10 µM came out at 15%.
As for `Fc1ccc(Oc2cnc(N3CCNCC3)nc2)cc1` [9d], the activation at 10 µM came to 5%.
For the molecule `Fc1ccc(COc2cnc(N3CCNCC3)nc2)cc1` [9e, 4-(5-((4-fluorobenzyl)oxy)pyrimidin-2-yl)piperazin-1-ium∙hydrochloride], the activation at 10 µM was 18%.
Same read-out and setting: the same measure for `Fc1ccc(CCOc2cnc(N3CCNCC3)nc2)cc1` [9f]: 4%.

Staying with this experiment, now noted: Table 2; serotonin as reference compound.
On to `C[C@@H](Oc1nc(N2CCC3(CCNC3)C2)ncc1F)c1cccc(F)c1` (stereo partly drawn) [10b, 2-(5-fluoro-4-((R)-1-(3-fluorophenyl)ethoxy)pyrimidin-2-yl)-2,7-diazaspiro[4.4]nonane], for which the “%activation” value came to 78.2%.
Regarding `C[C@@H](Oc1nc(N2C[C@H]3CNC[C@H]3C2)ncc1F)c1cccc(F)c1` [10c, (3aR,6aS)-2-(5-fluoro-4-((R)-1-(3-fluorophenyl)ethoxy)pyrimidin-2-yl)octahydropyrrolo[3,4-c]pyrrole], the “%activation” value was determined as 29.5%.
On the same count and under the same terms, the value for `C[C@@H](Oc1nc(N[C@@H]2CCNC2)ncc1F)c1cccc(F)c1` [10d, 5-fluoro-4-((R)-1-(3-fluorophenyl)ethoxy)-N-((R)-pyrrolidin-3-yl)pyrimidin-2-amine] was 16.4%; that for `C[C@@H](Oc1nc(N[C@H]2CCNC2)ncc1F)c1cccc(F)c1` [10e, 5-fluoro-4-((R)-1-(3-fluorophenyl)ethoxy)-N-((S)-pyrrolidin-3-yl)pyrimidin-2-amine] was 7.7%; that for `C[C@@H](Oc1nc(N2C[C@H]3CNC[C@H]3C2)ncc1F)c1ccc(F)cc1` [10h, (3aR,6aS)-2-(5-fluoro-4-((R)-1-(4-fluorophenyl)ethoxy)pyrimidin-2-yl)octahydropyrrolo[3,4-c]pyrrole] was 10.1%.
In the case of `C[C@@H](Oc1nc(N[C@H]2CCNC2)ncc1F)c1ccc(F)cc1` [10j, 5-Fluoro-4-((R)-1-(4-fluorophenyl)ethoxy)-N-((S)-pyrrolidin-3-yl)pyrimidin-2-amine], the “%activation” value was 0.1%.
